Results reported in patent US20230339937A1, “CONDENSED RING COMPOUNDS THAT INHIBIT H-PGDS” (SATO PHARMACEUTICAL CO., LTD., priority 2020, published 2023).

Molecular target: T1, Recombinant human H-PGDS (Homo sapiens, UniProt O60760)
T1 construct: made in house; host or cells: E. coli
Experiment: H-PGDS inhibitory activity (prostaglandin D2 production from prostaglandin H2, measured by LC-MS/MS)
Type: biochemical
Conditions: recombinant human H-PGDS 1.0 nM expressed in E. coli; prostaglandin H2 25 μM; preincubated 15 minutes on ice, reacted on ice for 1 minute; concentration that inhibits prostaglandin D2 production by 50%
Method in brief: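 PGD2 formed from 25 µM prostaglandin H2 during a 1-min on-ice reaction was measured by LC-MS/MS after an FeCl2/citric acid stop. The enzyme was 1.0 nM E. coli-expressed human H-PGDS in Tris-HCl pH 8.0 buffer with MgCl2, reduced glutathione and γ-globulin, preincubated with compound for 15 min on ice. Production was normalised to DMSO controls minus the no-enzyme background.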

T1 sequence (O60760 whole entry): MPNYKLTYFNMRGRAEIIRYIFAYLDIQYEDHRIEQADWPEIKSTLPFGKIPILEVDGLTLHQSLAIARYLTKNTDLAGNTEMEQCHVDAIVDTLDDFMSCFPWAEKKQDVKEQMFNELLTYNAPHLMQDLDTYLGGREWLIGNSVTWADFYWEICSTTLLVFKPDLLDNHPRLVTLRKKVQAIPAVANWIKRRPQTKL

Structure (SMILES)	IC50 [nM]
O=C(NCc1ccccc1)c1ccc(-c2nccc3sccc23)cc1 [Example 59, N-benzyl-4-(thieno[3,2-c]pyridin-4-yl)benzamide]	9.6
O=C(N[C@H]1CCN(c2cccc(=O)[nH]2)C1)c1ccc(-c2nccc3occc23)cc1 [Example 233, (S)-4-(furo[3,2-c]pyridin-4-yl)-N-[1-(6-oxo-1,6-dihydropyridin-2-yl)pyrrolidin-3-yl]benzamide]	7.5
O=C(NCCCCO)c1ccc(-c2nccc3occc23)cc1 [Example 96, 4-(furo[3,2-c]pyridin-4-yl)-N-(4-hydroxybutyl) benzamide]	17
O=C(NCC1CCCCC1)c1ccc(-c2nccc3[nH]ccc23)cc1 [Example 19, N-(cyclohexyl-methyl)-4-(1H-pyrrolo[3,2-c]pyridin-4-yl)benzamide]	1
O=C(NC1CCN(c2nccs2)CC1)c1ccc(-c2nccc3occc23)cc1 [Example 101, 4-(furo[3,2-c]pyridin-4-yl)-N-[1-(thiazol-2-yl)piperidin-4-yl]benzamide]	1
O=C(NCCCCCCO)c1ccc(-c2nccc3occc23)cc1 [Example 90, 4-(furo[3,2-c]pyridin-4-yl)-N-(6-hydroxyhexyl) benzamide]	15
O=C(NC1CCN(c2nnnn2C2CC2)CC1)c1ccc(-c2nccc3occc23)cc1 [Example 243, N-[1-(1-cyclopropyl-1H-tetrazol-5-yl)piperidin-4-yl]-4-(furo[3,2-c]pyridin-4-yl)benzamide]	2
O=C(NC1CCN(c2nncs2)CC1)c1ccc(-c2nccc3occc23)cc1 [Example 237, N-[1-(1,3,4-thiadiazol-2-yl)piperidin-4-yl]-4-(furo[3,2-c]pyridin-4-yl)benzamide]	1.2
COC(=O)c1ccnc(N2CCC(NC(=O)c3ccc(-c4nccc5occc45)cc3)CC2)n1 [Example 167, Methyl 2-{4-[4-(furo[3,2-c]pyridin-4-yl)benzamide]piperidin-1-yl}pyrimidine-4-carboxylate]	1.2
N#Cc1ccc(CNC(=O)c2ccc(-c3nccc4occc34)cc2)cc1 [Example 74, N-(4-cyanobenzyl)-4-(furo[3,2-c]pyridin-4-yl)benzamide]	6.3
CC(=O)NCCNC(=O)c1ccc(-c2nccc3[nH]ccc23)cc1 [Example 28, N-(2-acetamidoethyl)-4-(1H-pyrrolo[3,2-c]pyridin-4-yl)benzamide]	1.4
CCC(O)CNC(=O)c1ccc(-c2nccc3occc23)cc1 (centres unmarked) [Example 91, 4-(furo[3,2-c]pyridin-4-yl)-N-(2-hydroxybutyl) benzamide]	32
CC(O)[C@H]1CC[C@H](NC(=O)c2ccc(-c3nccc4occc34)cc2)CC1 (stereo partly drawn) [Example 121, 4-(furo[3,2-c]pyridin-4-yl)-N-[trans-4-(1-hydroxyethyl)cyclohexyl]benzamide]	1.3
O=C(NC1CCN(c2ccc(Cl)nn2)CC1)c1ccc(-c2nccc3occc23)cc1 [Example 148, N-[1-(6-chloropyridazin-3-yl)piperidin-4-yl]-4-(furo[3,2-c]pyridin-4-yl)benzamide]	1.8
O=C(N[C@H]1CCN(c2ccncn2)C1)c1ccc(-c2nccc3occc23)cc1 [Example 229, (S)-4-(furo[3,2-c]pyridin-4-yl)-N-[1-(pyrimidin-4-yl)pyrrolidin-3-yl]benzamide]	1.5
O=C(NC1CCCCC1)c1ccc(-c2nccc3occc23)cc1 [Example 88, N-cyclohexyl-4-(furo[3,2-c]pyridin-4-yl)benzamide]	4.2
O=C(NCC1CCCCC1)c1ccc(-c2nccc3occc23)cc1 [Example 85, N-(cyclohexyl-methyl)-4-(furo[3,2-c]pyridin-4-yl)benzamide]	32
O=C(NC1CN(c2ncccn2)C1)c1ccc(-c2nccc3occc23)cc1 [Example 217, 4-(furo[3,2-c]pyridin-4-yl)-N-[1-(pyrimidin-2-yl)azetidin-3-yl]benzamide]	2.4
O=C(NCC1CC1)c1ccc(-c2nccc3[nH]ccc23)cc1 [Example 18, N-(cyclopropyl-methyl)-4-(1H-pyrrolo[3,2-c]pyridin-4-yl)benzamide]	1
CC(C)(O)[C@H]1CC[C@H](NC(=O)c2ccc(-c3ncc(F)c4occc34)cc2)CC1 [Example 136, 4-(7-fluorofuro[3,2-c]pyridin-4-yl)-N-[trans-4-(2-hydroxypropan-2-yl)cyclohexyl]benzamide]	9
Cc1cc(CNC(=O)c2ccc(-c3nccc4[nH]ccc34)cc2)[nH]n1 [Example 49, N-[(3-methyl-1H-pyrazol-5-yl)methyl]-4-(1H-pyrrolo[3,2-c]pyridin-4-yl)benzamide]	1.2

The next lines start with the values.

IC50 [nM]	Structure (SMILES)
1.1	Cn1nnnc1N1CCC(NC(=O)c2ccc(-c3nccc4occc34)c(F)c2)CC1 [Example 323, 3-fluoro-4-(furo[3,2-c]pyridin-4-yl)-N-[1-(1-methyl-1H-tetrazol-5-yl)piperidin-4-yl]benzamide]
55	O=C(N[C@H]1CC[C@H](N2CCOCC2)CC1)c1ccc(-c2nccc3occc23)cc1 [Example 305, 4-(furo[3,2-c]pyridin-4-yl)-N-(trans-4-morpholinocyclohexyl)benzamide]
0.74	O=C(N[C@H]1CCN(c2ncccn2)C1)c1ccc(-c2nccc3occc23)c(F)c1 [Example 328, (S)-3-fluoro-4-(furo[3,2-c]pyridin-4-yl)-N-[1-(pyrimidin-2-yl)pyrrolidin-3-yl]benzamide]
1.9	Cc1nnnn1[C@H]1CC[C@H](NC(=O)c2ccc(-c3nccc4occc34)cc2)CC1 [Example 297, 4-(furo[3,2-c]pyridin-4-yl)-N-[trans-4-(5-methyl-1H-tetrazol-1-yl)cyclohexyl]benzamide]
4	O=C(N[C@H]1CC[C@H](N2CCCC2=O)CC1)c1ccc(-c2nccc3occc23)cc1 [Example 299, 4-(furo[3,2-c]pyridin-4-yl)-N-[trans-4-(2-oxopyrrolidin-1-yl)cyclohexyl]benzamide]
3.5	CC1(C)CC(NC(=O)c2ccc(-c3nccc4occc34)cc2)CCC1O (centres unmarked) [Example 277, 4-(furo[3,2-c]pyridin-4-yl)-N-(4-hydroxy-3,3-dimethylcyclohexyl)benzamide]
1.6	Cn1nnc(N2CCC(NC(=O)c3ccc(-c4nccc5occc45)cc3)CC2)n1 [Example 249, 4-(furo[3,2-c]pyridin-4-yl)-N-[1-(2-methyl-2 H-tetrazol-5-yl)piperidin-4-yl]benzamide]
1.2	Cc1cc2occc2c(-c2ccc(C(=O)NC34CCC(O)(CC3)CC4)cc2)n1 [Example 343, N-(4-hydroxybicyclo[2.2.2]octan-1-yl)-4-(6-methylfuro[3,2-c]pyridin-4-yl)benzamide]
0.87	CCO[C@H]1CC[C@H](NC(=O)c2ccc(-c3nccc4occc34)cc2)CC1 [Example 287, N-(trans-4-ethoxycyclohexyl)-4-(furo[3,2-c]pyridin-4-yl)benzamide]
2.5	O=C(N[C@H]1CC[C@@H](O)CC1)c1ccc(-c2nccc3occc23)cc1 [Example 262, 4-(furo[3,2-c]pyridin-4-yl)-N-(cis-4-hydroxycyclohexyl)benzamide]
3.2	CC(N[C@H]1CC[C@H](NC(=O)c2ccc(-c3nccc4occc34)cc2)CC1)C(F)F (stereo partly drawn) [Example 302, N-{trans-4-[(1,1-difluoropropan-2-yl)amino]cyclohexyl}-4-(furo[3,2-c]pyridin-4-yl)benzamide]
